The nature of data set [1]: Swelling in solvents for drug loading and AHA loading of the hydrogel. Type of data set: physicochemical.
Protocol: Six pieces of the MMA/AA (90/9) polymer were weighed in the dry state. Each piece was placed into 4 ml of a separate solvent. The solvents used were pH buffers with pH values of 4.0, 7.4, and 9.0, 90 v/v % ethanol, methanol, and 90 v/v % acetone at 37° C. […] A 16 w/w % solution of acetohydroxamic acid in 90% acetone was prepared.
Hydrogel pieces were weighed in the dry state. Six pieces weighing approximately the same were separated out for each respective pH buffer value. Each gel piece was individually placed into a test tube containing 3 ml of the 16% AHA acetone solution. The test tubes were capped and wrapped in parafilm to prevent evaporation of the solvent. The test tubes were placed into a 37° C. water bath for 48 hours. The hydrogel pieces were then removed from the AHA solution and placed in a vacuum oven at 60° C. for solvent evaporation and then at room temperature for a total drying time of 72 hours. The drug-loaded gels were then reweighed, and the total AHA content was calculated.
Absorbances for each of the solutions were measured at 515 nm on a Perkin-Elmer Lambda 3B UV/VIS Spectrophotometer. A calibration curve was calculated from the standard concentration solutions. The concentrations of the AHA were calculated from the absorbances and raised to the initial surface area of the gel matrix.
For data set [2], the target named is T1, urease (Proteus mirabilis, UniProt P17086).
T1 construct: endogenous in cells; host or cells: living Proteus mirabilis (clinic isolate) in artificial urine
As to the kind of experiment: Bacteria/urease study: pH of artificial urine with Proteus mirabilis. Type of data set: cell-based. The note with it: 10^11 bacteria/ml. The protocol: After mixing, the urine was filter-sterilized into a sterile container using a 0.2 μm pore size filtration system. A solution of this artificial urine containing 750 μg/ml of AHA was prepared by dissolving 0.0757 g of the AHA in 100 ml of the urine. This solution was then diluted in series to yield artificial urine with AHA concentrations of 375, 187.5, 75, and 7.5 μg/ml.
Fifty milliliters of these solutions were sterilized by filtering them through a syringe filter with 0.2 μm pore size into a sterile container.
Proteus mirabilis were harvested from the Surgery/Urology clinic at the University of Florida, Gainesville, Fla. These bacteria were cultured on a heart infusion agar (Difco Laboratories) for 48 hours at 37° C. Bacteria were aseptically harvested and suspended in a solution of artificial urine not containing any of the urease inhibitor. Dilutions of this suspension were made to 10,000, and a count of the bacteria was made on a microscopic counting grid. The initial concentration of bacteria was back-calculated by using the Petroff-Hauser formula shown in equation two. [formula]
For the urine solutions containing the urease inhibitor and two control solutions (one containing bacteria and the other without), a series of six test tubes was set up. […] The pH of each of the samples was measured initially and then at 2 hour intervals up to 12 hours. […]

For data set [3] the following is noted: cited from earlier work.
The conditions of data set [4]: cited from earlier work. The source holds these as a separate data set.
In data set [5] the test system is bacteria. The settings on record: cited from earlier work.
Data set [6] concerns struvite encrustation. The note with it: cited from earlier work.
The conditions of data set [7]: cited from earlier work. The source holds these as a separate data set.
The subject of data set [8] is Proteus sp. and other urease-producing organisms. The settings on record: cited from earlier work.
For data set [9] the following is noted: in vivo; cited from earlier work.

We go through 7 molecules from patent US6306422A, “Compositions and devices for controlled release of active ingredients” (priority 1998, dated 2001).

Counter-ions that a name gives are not always drawn.

T1 sequence (P17086 whole entry): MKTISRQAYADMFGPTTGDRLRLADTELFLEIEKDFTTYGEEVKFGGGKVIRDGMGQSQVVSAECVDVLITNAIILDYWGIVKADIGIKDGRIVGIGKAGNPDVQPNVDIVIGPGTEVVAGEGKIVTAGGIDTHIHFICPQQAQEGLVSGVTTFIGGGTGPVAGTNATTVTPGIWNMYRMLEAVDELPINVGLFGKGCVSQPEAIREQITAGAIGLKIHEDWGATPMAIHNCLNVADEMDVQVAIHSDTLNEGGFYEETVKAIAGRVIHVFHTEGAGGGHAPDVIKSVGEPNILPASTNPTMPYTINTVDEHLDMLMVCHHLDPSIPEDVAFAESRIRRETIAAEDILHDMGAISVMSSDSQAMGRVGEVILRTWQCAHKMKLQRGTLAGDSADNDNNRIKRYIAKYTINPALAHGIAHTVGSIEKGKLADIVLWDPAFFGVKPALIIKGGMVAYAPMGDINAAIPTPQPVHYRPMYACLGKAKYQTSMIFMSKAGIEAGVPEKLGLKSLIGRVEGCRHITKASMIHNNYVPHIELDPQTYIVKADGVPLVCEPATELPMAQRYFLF
T1 sequence (P17088 whole entry, further chain): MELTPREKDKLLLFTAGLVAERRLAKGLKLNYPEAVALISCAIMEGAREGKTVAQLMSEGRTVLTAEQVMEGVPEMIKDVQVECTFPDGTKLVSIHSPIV
T1 sequence (P17087 whole entry, further chain): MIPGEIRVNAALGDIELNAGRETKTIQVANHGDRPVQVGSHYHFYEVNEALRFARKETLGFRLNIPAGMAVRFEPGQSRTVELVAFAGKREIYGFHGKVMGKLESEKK

For orientation: pKa means the negative logarithm of the acid dissociation constant. For the molecule `CC(=O)NO` [AHA, acetohydroxamic acid], in [1] (in 90% acetone), the “concentration near the saturation point” value is given as roughly 16 w/w %. Besides, in [1] (pH 4.0, 7.4, 9.0 buffers, 90 v/v % ethanol, methanol, 90 v/v % acetone), the “solubility of AHA in the chosen solutions” value is reported as “very soluble”. The “effect of AHA on the activity of urease (pH of artificial urine)” value in [2] (AHA 7.5-750 μg/ml, 37° C., up to 24 hours) was “resists pH increase for a longer time and experiences a smaller overall pH increase”. For the same molecule, the “concentration of AHA giving therapeutic benefit” value in [2] (artificial urine) was 7.5 µg/mL. Moreover, in data set [3], the pKa was 9.3. For the same molecule, the “absorption from the gastrointestinal tract” value in data set [4] (human, in vivo) was “well absorbed”. For the same molecule, the “adverse effects limiting use” value in data set [4] (patients) was “Coomb's hemolytic anemia, GI complaints, bone marrow depression, and teratogenicity”. Besides, the “effect of the presence of AHA on methenamine” value in data set [5] is given as “increases the antibacterial activity of the methenamine”.
With `O=C(O)CC(O)(CC(=O)O)C(=O)O` [Sodium citrate], in data set [6], the “prevention of struvite encrustation” value is listed as “shows potential”.
With `[H]/N=C(\N/C(=N/[H])NCCCCCCNC(=N)NC(=N)Nc1ccc(Cl)cc1)Nc1ccc(Cl)cc1` [chlorhexidine], in data set [7], the solubility in alcohols entry is “highly soluble”.
With `O=C(O)CNC(=O)c1ccccc1` [hippuric acid], in data set [7], the solubility in alcohols entry is listed as “highly soluble”.
Chondroitin sulfate: the “prevention of struvite encrustation” value in data set [6] is given as “ineffective”.
Take Gentamicin: the “effectiveness against Proteus sp. and other urease-producing organisms” value in [8] was “highly effective”. Moreover, the “toxicity limiting plasma concentrations” value in data set [9] was “systemic nephrotoxicity”.
Regarding heparin sulfate, the “prevention of struvite encrustation” value in data set [6] is “ineffective”.
